These results are taken from the OligoGym collection.

Strand notation (5' to 3'): a small letter for the sugar, then the base; units joined by * are phosphorothioate-linked, units joined directly phosphodiester-linked; [ ] holds rarer units or linkages, { } end groups; capitals alone tell only the bases. d = 2'-deoxy (DNA); m = 2'-O-methyl

In data set [1] the target is LINC-PINT. In words: HEK293-TLR8, 100 nM ASO, then resiquimod.
In data set [2] the target is LINC-PINT. Kind of data set: HEK293-TLR7, 100 nM ASO, then resiquimod.
The target of data set [3] is EGFR. In words: HEK293-TLR8, 100 nM ASO, then resiquimod.
The target of data set [4] is EGFR. Kind of data set: HEK293-TLR7, 100 nM ASO, then resiquimod.

“mA*mA*mA*mU*mG*dT*dC*dC*dT*dG*dG*dC*dC*dC*dT*mC*mA*mC*mU*mG”: the TLR8 potentiation (NF-kB luciferase) (fold of resiquimod alone) in the data set with LINC-PINT [1] came to 1.45. Further, in the data set with LINC-PINT [2], the TLR7 signal (NF-kB luciferase) (% of resiquimod alone) came out at 46.5.
Taken in the same sequence, the figures for “mC*mA*mC*mC*mC*dT*dT*dC*dT*dC*dT*dC*dT*dG*dG*mU*mC*mC*mC*mA” were 1.85 and 73.3.
Taken in the same sequence, the figures for “mA*mG*mC*mC*mG*dA*dA*dC*dA*dG*dA*dA*dG*dG*dA*mG*mC*mG*mU*mC” were 2.54 and 27.7.
Turning to “mC*mA*mG*mG*mU*dG*dT*dC*dC*dT*dT*dG*dC*dA*dC*mG*mU*mG*mG*mC”, the TLR8 potentiation (NF-kB luciferase) (fold of resiquimod alone) with EGFR [3] was 1.95. Further, the TLR7 signal (NF-kB luciferase) (% of resiquimod alone) in the data set with EGFR [4] was found to be 55.4.
“mC*mU*mU*mC*mU*dC*dT*dC*dT*dG*dG*dT*dC*dC*dC*mA*mU*mC*mC*mC”: in the data set with LINC-PINT [1], the TLR8 potentiation (NF-kB luciferase) (fold of resiquimod alone) stood at 2.92. The same substance gave a TLR7 signal (NF-kB luciferase) (% of resiquimod alone) with LINC-PINT [2] of 56.2.
On to “mG*mU*mG*mU*mC*dC*dT*dT*dG*dC*dA*dC*dG*dT*dG*mG*mC*mU*mU*mC”, for which the TLR8 potentiation (NF-kB luciferase) (fold of resiquimod alone) in the data set with EGFR [3] was found to be 0.8. In the data set with EGFR [4], this substance returned a TLR7 signal (NF-kB luciferase) (% of resiquimod alone) of 28.3.
Regarding “mC*mA*mA*mG*mG*dC*dC*dC*dT*dT*dC*dG*dC*dA*dC*mU*mU*mC*mU*mU”, the TLR8 potentiation (NF-kB luciferase) (fold of resiquimod alone) with EGFR [3] was 2.42. In the data set with EGFR [4], the TLR7 signal (NF-kB luciferase) (% of resiquimod alone) was 79.4.
For “mU*mU*mA*mC*mU*dT*dT*dA*dA*dA*dA*dG*dC*dA*dA*mA*mA*mG*mG*mA”, in that order: 2.27 and 35.
For “mG*mU*mA*mG*mA*dG*dA*dA*dA*dT*dT*dA*dT*dT*dT*mU*mA*mG*mG*mA”, in that order: 2.47 and 34.5.
Regarding “mC*mG*mG*mC*mA*dT*dC*dC*dA*dC*dC*dA*dC*dG*dT*mC*mG*mU*mC*mC”, the TLR8 potentiation (NF-kB luciferase) (fold of resiquimod alone) in the data set with EGFR [3] came out at 1.33. Also, the TLR7 signal (NF-kB luciferase) (% of resiquimod alone) in the data set with EGFR [4] was 56.7.
For “mC*mA*mC*mU*mG*dG*dG*dT*dG*dT*dA*dA*dG*dA*dG*mG*mC*mU*mC*mC”, in that order: 2.44 and 87.3.
For “mG*mC*mA*mA*mG*dG*dC*dC*dC*dT*dT*dC*dG*dC*dA*mC*mU*mU*mC*mU”, in that order: 2.55 and 33.
Turning to “mA*mG*mG*mU*mG*dT*dC*dC*dT*dT*dG*dC*dA*dC*dG*mU*mG*mG*mC*mU”, in the data set with EGFR [3], the TLR8 potentiation (NF-kB luciferase) (fold of resiquimod alone) was found to be 1.27. Besides, in the data set with EGFR [4], the TLR7 signal (NF-kB luciferase) (% of resiquimod alone) was determined as 76.4.
For “mU*mA*mA*mA*mA*dG*dG*dA*dG*dA*dA*dA*dA*dC*dT*mA*mU*mC*mU*mU”, in that order: 1.69 and 58.2.
Regarding “mG*mG*mC*mA*mU*dC*dC*dA*dC*dC*dA*dC*dG*dT*dC*mG*mU*mC*mC*mA”, the TLR8 potentiation (NF-kB luciferase) (fold of resiquimod alone) with EGFR [3] came out at 0.85. The substance further yielded a TLR7 signal (NF-kB luciferase) (% of resiquimod alone) in the data set with EGFR [4] of 34.9.
Taken in the same sequence, the figures for “mG*mG*mG*mA*mC*dA*dC*dT*dT*dC*dT*dT*dC*dA*dC*mG*mC*mA*mG*mG” were 1.24 and 52.1.
For “mG*mU*mU*mA*mC*dT*dC*dG*dT*dG*dC*dC*dT*dT*dG*mG*mC*mA*mA*mA”, in that order: 1.17 and 32.3.
On to “mU*mU*mU*mU*mU*dG*dA*dA*dG*dT*dG*dT*dT*dT*dA*mA*mU*mA*mU*mU”, for which the TLR8 potentiation (NF-kB luciferase) (fold of resiquimod alone) with EGFR [3] amounted to 3.43. Moreover, in the data set with EGFR [4], the TLR7 signal (NF-kB luciferase) (% of resiquimod alone) is 59.
For “mG*mA*mA*mG*mU*dG*dA*dA*dG*dT*dA*dA*dA*dA*dG*mG*mA*mG*mA*mA”, in that order: 0.57 and 35.6.
Turning to “mA*mA*mA*mA*mG*dG*dA*dG*dA*dA*dA*dA*dC*dT*dA*mU*mC*mU*mU*mC”, the TLR8 potentiation (NF-kB luciferase) (fold of resiquimod alone) with EGFR [3] is 1.65. The TLR7 signal (NF-kB luciferase) (% of resiquimod alone) in the data set with EGFR [4] turned out to be 47.6.
Taken in the same sequence, the figures for “mG*mU*mA*mA*mA*dA*dA*dG*dC*dT*dT*dT*dT*dG*dA*mA*mG*mU*mG*mA” were 1.62 and 29.1.
Taken in the same sequence, the figures for “mU*mG*mU*mA*mG*dA*dG*dA*dA*dA*dT*dT*dA*dT*dT*mU*mU*mA*mG*mG” were 2.99 and 61.4.
With “mU*mU*mU*mG*mA*dA*dG*dT*dG*dA*dA*dG*dT*dA*dA*mA*mA*mG*mG*mA”, in the data set with EGFR [3], the TLR8 potentiation (NF-kB luciferase) (fold of resiquimod alone) was 2.58. Also, the TLR7 signal (NF-kB luciferase) (% of resiquimod alone) in the data set with EGFR [4] was 35.2.
For “mA*mU*mU*mA*mC*dT*dT*dT*dA*dA*dA*dA*dG*dC*dA*mA*mA*mA*mG*mG”, the TLR8 potentiation (NF-kB luciferase) (fold of resiquimod alone) in the data set with EGFR [3] turned out to be 2.17. In the data set with EGFR [4], the TLR7 signal (NF-kB luciferase) (% of resiquimod alone) was 42.9.
For “mG*mU*mC*mC*mU*dT*dG*dC*dA*dC*dG*dT*dG*dG*dC*mU*mU*mC*mG*mU”, in that order: 0.8 and 31.5.
As to “mU*mU*mU*mU*mG*dA*dA*dG*dT*dG*dA*dA*dG*dT*dA*mA*mA*mA*mG*mG”, the TLR8 potentiation (NF-kB luciferase) (fold of resiquimod alone) in the data set with EGFR [3] amounted to 3.08. The substance also registered a TLR7 signal (NF-kB luciferase) (% of resiquimod alone) in the data set with EGFR [4] of 51.6.
For “mU*mA*mC*mU*mC*dG*dT*dC*dG*dG*dC*dA*dT*dC*dC*mA*mC*mC*mA*mC”, in that order: 1.08 and 70.2.
Turning to “mU*mG*mG*mG*mC*dT*dG*dG*dA*dA*dT*dC*dC*dG*dA*mG*mU*mU*mA*mU”, the TLR8 potentiation (NF-kB luciferase) (fold of resiquimod alone) with EGFR [3] came to 1.92. The same substance showed a TLR7 signal (NF-kB luciferase) (% of resiquimod alone) with EGFR [4] of 36.1.
For “mA*mA*mU*mU*mA*dC*dT*dT*dT*dA*dA*dA*dA*dG*dC*mA*mA*mA*mA*mG”, in that order: 2.07 and 77.1.
Taken in the same sequence, the figures for “mA*mU*mC*mC*mA*dC*dC*dA*dC*dG*dT*dC*dG*dT*dC*mC*mA*mU*mG*mU” were 1.06 and 34.7.
As to “mU*mC*mG*mG*mC*dA*dT*dC*dC*dA*dC*dC*dA*dC*dG*mU*mC*mG*mU*mC”, the TLR8 potentiation (NF-kB luciferase) (fold of resiquimod alone) with EGFR [3] turned out to be 1.39. Also, in the data set with EGFR [4], the TLR7 signal (NF-kB luciferase) (% of resiquimod alone) came to 53.7.
For “mA*mA*mA*mA*mA*dT*dT*dA*dC*dT*dT*dT*dA*dA*dA*mA*mG*mC*mA*mA”, in that order: 1.32 and 71.1.
Taken in the same sequence, the figures for “mA*mU*mG*mU*mC*dC*dC*dG*dC*dC*dA*dC*dT*dG*dG*mA*mU*mG*mC*mU” were 0.84 and 71.7.
For the substance “mU*mG*mA*mA*mG*dT*dA*dA*dA*dA*dA*dT*dC*dA*dA*mU*mA*mG*mC*mG”, the TLR8 potentiation (NF-kB luciferase) (fold of resiquimod alone) with EGFR [3] amounted to 1.96. In the data set with EGFR [4], the TLR7 signal (NF-kB luciferase) (% of resiquimod alone) came to 30.
As to “mG*mG*mA*mG*mA*dT*dT*dT*dC*dA*dG*dA*dG*dC*dA*mG*mC*mU*mU*mC”, the TLR8 potentiation (NF-kB luciferase) (fold of resiquimod alone) with EGFR [3] was 1.25. The substance also showed a TLR7 signal (NF-kB luciferase) (% of resiquimod alone) in the data set with EGFR [4] of 36.2.
Taken in the same sequence, the figures for “mG*mG*mU*mG*mU*dC*dC*dT*dT*dG*dC*dA*dC*dG*dT*mG*mG*mC*mU*mU” were 0.88 and 72.2.
Consider “mU*mU*mU*mA*mC*dG*dG*dT*dT*dT*dT*dC*dA*dG*dA*mA*mU*mA*mU*mC”, for which, in the data set with EGFR [3], the TLR8 potentiation (NF-kB luciferase) (fold of resiquimod alone) stood at 3.63. Also, the TLR7 signal (NF-kB luciferase) (% of resiquimod alone) in the data set with EGFR [4] was 40.6.
For “mC*mU*mU*mU*mU*dG*dA*dA*dG*dT*dG*dA*dA*dG*dT*mA*mA*mA*mA*mG”, in that order: 1.98 and 79.8.
Taken in the same sequence, the figures for “mU*mU*mU*mU*mG*dA*dA*dG*dT*dG*dT*dT*dT*dA*dA*mU*mA*mU*mU*mC” were 4.09 and 78.9.
Taken in the same sequence, the figures for “mU*mG*mU*mC*mC*dT*dT*dG*dC*dA*dC*dG*dT*dG*dG*mC*mU*mU*mC*mG” were 2.61 and 62.7.
Turning to “mC*mU*mG*mU*mG*dA*dT*dC*dT*dT*dG*dA*dC*dA*dT*mG*mC*mU*mG*mC”, the TLR8 potentiation (NF-kB luciferase) (fold of resiquimod alone) with EGFR [3] worked out at 3.44. In the data set with EGFR [4], this substance yielded a TLR7 signal (NF-kB luciferase) (% of resiquimod alone) of 53.3.
For “mU*mU*mG*mA*mA*dG*dT*dG*dA*dA*dG*dT*dA*dA*dA*mA*mG*mG*mA*mG”, in that order: 0.96 and 31.8.
“mU*mA*mG*mG*mC*dA*dC*dT*dT*dT*dG*dC*dC*dT*dC*mC*mU*mU*mC*mU”: in the data set with EGFR [3], the TLR8 potentiation (NF-kB luciferase) (fold of resiquimod alone) is 2.29. This substance showed a TLR7 signal (NF-kB luciferase) (% of resiquimod alone) with EGFR [4] of 58.9.
Taken in the same sequence, the figures for “mA*mU*mG*mC*mC*dA*dT*dC*dC*dA*dC*dT*dT*dG*dA*mU*mA*mG*mG*mC” were 1.16 and 29.3.
Taken in the same sequence, the figures for “mG*mU*mA*mA*mA*dA*dG*dG*dA*dG*dA*dA*dA*dA*dC*mU*mA*mU*mC*mU” were 1.14 and 31.7.
For “mA*mC*mA*mG*mU*dG*dT*dT*dG*dA*dG*dA*dT*dA*dC*mU*mC*mG*mG*mG”, in that order: 2.73 and 47.6.
Turning to “mC*mU*mU*mG*mC*dA*dC*dG*dT*dG*dG*dC*dT*dT*dC*mG*mU*mC*mU*mC”, the TLR8 potentiation (NF-kB luciferase) (fold of resiquimod alone) with EGFR [3] is 3.06. The TLR7 signal (NF-kB luciferase) (% of resiquimod alone) in the data set with EGFR [4] was 28.1.
Taken in the same sequence, the figures for “mC*mU*mU*mU*mU*dG*dG*dG*dA*dA*dC*dG*dG*dA*dC*mU*mG*mG*mU*mU” were 1.91 and 53.2.
